Experimental data as given in PubChem BioAssay (NCI).
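How tested: cells in 96-well plates exposed to compound for 48 hours at five concentrations. GI50 marks 50% less growth. At the TGI there is no net growth.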

Tests used:
Experiment in all cases: NCI anticancer screen, dose series, 48 h
SF-295 CNS = test system: SF-295 CNS
UACC-257 melanoma = test system: UACC-257 melanoma
OVCAR-8 ovarian = test system: OVCAR-8 ovarian
TK-10 renal = test system: TK-10 renal
CCRF-CEM leukemia = test system: CCRF-CEM leukemia
UACC-62 melanoma = test system: UACC-62 melanoma
HCT-15 colon = test system: HCT-15 colon
HCC-2998 colon = test system: HCC-2998 colon
SK-MEL-2 melanoma = test system: SK-MEL-2 melanoma
MOLT-4 leukemia = test system: MOLT-4 leukemia

Compound	GI50 (SF-295 CNS)	TGI (SF-295 CNS)	GI50 (UACC-257 melanoma)	TGI (UACC-257 melanoma)	GI50 (OVCAR-8 ovarian)	TGI (OVCAR-8 ovarian)	GI50 (TK-10 renal)	TGI (TK-10 renal)	GI50 (CCRF-CEM leukemia)	TGI (CCRF-CEM leukemia)	GI50 (UACC-62 melanoma)	TGI (UACC-62 melanoma)	GI50 (HCT-15 colon)	TGI (HCT-15 colon)	GI50 (HCC-2998 colon)	TGI (HCC-2998 colon)	GI50 (SK-MEL-2 melanoma)	TGI (SK-MEL-2 melanoma)	GI50 (MOLT-4 leukemia)	TGI (MOLT-4 leukemia)
C=C1C(=O)O[C@H]2[C@H]1CC/C(COC(=O)c1cccnc1N)=C\CC[C@@]1(C)O[C@@H]21	4150 nM	16 µM	2320 nM	12.6 µM	4200 nM	16.3 µM	2590 nM	10.4 µM	345 nM	2.47 µM	3020 nM	13.3 µM	2340 nM	9.79 µM	4.43 µM	16.2 µM	3160 nM	12.5 µM	650 nM	6.46 µM
CN1CCN(CCCNC(=O)c2c3c(n4ccccc24)C(=O)c2ncccc2C3=O)CC1	1250 nM	13.1 µM	971 nM	2.3 µM	888 nM	5.99 µM	5130 nM	40.9 µM	2160 nM	> 27.8 µM	764 nM	3 µM	1250 nM	8.47 µM	1.04 µM	4.07 µM	2670 nM	11.4 µM	2130 nM	4.87 µM
Cc1cccc(NC(=O)C(=O)C(C2OC(=O)c3ccccc32)[N+](=O)[O-])c1C (stereo not given)	–	28.1 µM	–	17.6 µM	–	26.8 µM	–	32 µM	–	20.4 µM	–	23.1 µM	–	19.7 µM	–	27 µM	–	17.2 µM	–	> 100 µM
CN(C)c1ccc(/C=C(\C#N)c2cc3ccccc3[nH]2)cc1	610 nM	7.33 µM	4860 nM	> 100 µM	2350 nM	> 100 µM	2660 nM	> 100 µM	813 nM	14.3 µM	679 nM	> 100 µM	509 nM	> 100 µM	6.59 µM	> 100 µM	454 nM	> 100 µM	906 nM	> 100 µM
Cn1ncc(C#N)c1-c1ccc2c(c1)CN([C@H](CN)Cc1cccc(F)c1)C2=O	503 nM	24.9 µM	5990 nM	66.6 µM	47700 nM	> 100 µM	787 nM	24 µM	932 nM	> 100 µM	3170 nM	22.6 µM	15900 nM	> 100 µM	5.96 µM	> 100 µM	16600 nM	44.8 µM	413 nM	27.4 µM
O=S1(=O)c2ccccc2N(c2ccccc2)c2nnnn21	–	> 100 µM	–	> 100 µM	–	> 100 µM	–	> 100 µM	–	31 µM	–	37.1 µM	–	37.8 µM	–	36.4 µM	–	> 100 µM	–	55.3 µM
COC(=O)C1C(C(=O)O)C2(c3ccccc3)C(=O)C1(c1ccccc1)C(c1ccccc1)=C2c1ccccc1 (stereo not given)	22900 nM	71.2 µM	19600 nM	40.9 µM	18800 nM	35.9 µM	39200 nM	99 µM	11700 nM	33.6 µM	15500 nM	29.9 µM	32500 nM	> 100 µM	15.7 µM	29.6 µM	16500 nM	34.1 µM	14500 nM	36 µM
CC(C)(C)[Si](C)(C)OCC1OC(n2cnc3c(=O)[nH]cnc32)CC1O (stereo not given)	–	> 100 µM	–	> 100 µM	–	> 100 µM	–	> 100 µM	–	> 100 µM	–	> 100 µM	–	> 100 µM	–	> 100 µM	–	> 100 µM	–	> 100 µM
N#Cc1c2ccccc2c(Cc2ccc3c(c2)OCCOCCOCCOCCOCCO3)c2ccccc12	–	21.3 µM	–	22.5 µM	–	18.3 µM	–	19.3 µM	–	> 100 µM	–	19.8 µM	–	19.2 µM	–	24.7 µM	–	19.9 µM	–	> 100 µM
NC(=O)c1c(NC(=O)c2cccs2)sc2c1CCC(=O)C2	2860 nM	9.42 µM	2730 nM	7.08 µM	3020 nM	> 100 µM	6330 nM	> 100 µM	458 nM	> 100 µM	811 nM	4.43 µM	1650 nM	17.9 µM	4.13 µM	48.9 µM	2710 nM	7.78 µM	2280 nM	16.1 µM
O=C1/C(=C\c2ccc(F)cc2)CN(C(=O)c2ccccc2F)C/C1=C\c1ccc(F)cc1	2080 nM	5.02 µM	1710 nM	3.47 µM	1720 nM	5.14 µM	1970 nM	4.27 µM	736 nM	4.97 µM	1460 nM	3.05 µM	1050 nM	2.58 µM	1.81 µM	3.32 µM	2040 nM	4.61 µM	1720 nM	7.49 µM
C=C1C(=O)O[C@H](c2ccoc2)C[C@@H]1[C@@]1(C)CCCC2(C)C(=O)OCC21 (stereo not given in full)	–	> 100 µM	–	> 100 µM	–	> 100 µM	–	> 100 µM	–	> 100 µM	–	> 100 µM	–	> 100 µM	–	> 100 µM	–	> 100 µM	–	> 100 µM
CCOC(=O)C1=C(C)NC(=O)NC1c1ccc(OC)cc1OC (stereo not given)	–	> 100 µM	–	> 100 µM	–	> 100 µM	–	> 100 µM	–	> 100 µM	–	> 100 µM	–	> 100 µM	–	> 100 µM	–	> 100 µM	–	> 100 µM
CCc1nc(C)cn1C(=O)OCc1nc2nc(Cl)nc(N3CCOCC3)c2[nH]1	2790 nM	11.7 µM	1600 nM	3.26 µM	1470 nM	3.61 µM	1790 nM	3.28 µM	302 nM	1.19 µM	1440 nM	2.75 µM	677 nM	2.22 µM	1.84 µM	3.44 µM	1720 nM	3.29 µM	1010 nM	3.79 µM
CCOC(=O)c1cc(=O)n(C)c(=O)n1C	–	> 100 µM	–	> 100 µM	–	> 100 µM	–	> 100 µM	–	> 100 µM	–	> 100 µM	–	> 100 µM	–	> 100 µM	–	> 100 µM	–	> 100 µM
Cn1[nH]cc2ccc3nc4ccccc4c(=O)c3c21	–	> 96.3 µM	–	> 74 µM	–	> 94.9 µM	–	72.2 µM	–	> 100 µM	–	26.6 µM	–	97.4 µM	–	90.5 µM	–	> 100 µM	–	> 95.1 µM
